The text below walks through data of patent US7605174B2, “Indane derivatives as modulators of ion channels” (Vertex Pharmaceuticals Incorporated, priority 2005, dated 2009).

In experiment [1] the target is T1, NaV1.3 (Homo sapiens, UniProt Q9NY46). Description: Activity against NaV 1.3 channel (optical membrane potential assay, electrical stimulation). It counts as cell-based. The arrangement: expressed in transfected cells; host or cells: HEK293. As for the experimental part: Compounds of the invention are useful as antagonists of voltage-gated sodium ion channels. Antagonist properties of test compounds were assessed as follows. Cells expressing the NaV of interest were placed into microtiter plates. After an incubation period, the cells were stained with fluorescent dyes sensitive to the transmembrane potential. The test compounds were added to the microtiter plate. The cells were stimulated with either a chemical or electrical means to evoke a NaV dependent membrane potential change from unblocked channels, which was detected and measured with trans-membrane potential-sensitive dyes. Antagonists were detected as a decreased membrane potential response to the stimulus. The optical membrane potential assay utilized voltage-sensitive FRET sensors described by Gonzalez and Tsien (See, Gonzalez, J. E. and R. Y. Tsien (1995) “Voltage sensing by fluorescence resonance energy transfer in single cells” Biophys J 69(4): 1272-80, and Gonzalez, J. E. and R. Y. Tsien (1997) “Improved indicators of cell membrane potential that use fluorescence resonance energy transfer” Chem Biol 4(4): 269-77) in combination with instrumentation for measuring fluorescence changes such as the Voltage/Ion Probe Reader (VIPR®) (See, Gonzalez, J. E., K. Oades, et al. (1999) “Cell-based assays and instrumentation for screening ion-channel targets” Drug Discov Today 4(9): 431-439).
The following is an example of how NaV1.3 inhibition activity is measured using the optical membrane potential method#2. Other subtypes are performed in an analogous mode in a cell line expressing the NaV of interest.
HEK293 cells stably expressing NaV1.3 are plated into 96-well microtiter plates. After an appropriate incubation period, the cells are stained with the voltage sensitive dyes CC2-DMPE/DiSBAC2(3) as follows.
2×CC2-DMPE=20 μM CC2-DMPE: 10 mM CC2-DMPE is vortexed with an equivalent volume of 10% pluronic, followed by vortexing in required amount of HBSS containing 10 mM HEPES. Each cell plate will require 5 mL of 2×CC2-DMPE. 50 μL of 2×CC2-DMPE is to wells containing washed cells, resulting in a 10 μM final staining concentration. The cells are stained for 30 minutes in the dark at RT.
2×DISBAC2(3) with ABSC1=6 μM DISBAC2(3) and 1 mM ABSC1: The required amount of 10 mM DISBAC2(3) is added to a 50 ml conical tube and mixed with 1 μL 10% pluronic for each mL of solution to be made and vortexed together. Then HBSS/HEPES is added to make up 2× solution. Finally, the ABSC1 is added.
The 2×DiSBAC2(3) solution can be used to solvate compound plates. Note that compound plates are made at 2× drug concentration. Wash stained plate again, leaving residual volume of 50 μL. Add 50 uL/well of the 2×DiSBAC2(3) w/ABSC1. Stain for 30 minutes in the dark at RT.
The electrical stimulation instrument and methods of use are described in ION Channel Assay Methods PCT/US01/21652, herein incorporated by reference. The instrument comprises a microtiter plate handler, an optical system for exciting the coumarin dye while simultaneously recording the coumarin and oxonol emissions, a waveform generator, a current- or voltage-controlled amplifier, and a device for inserting electrodes in well. Under integrated computer control, this instrument passes user-programmed electrical stimulus protocols to cells within the wells of the microtiter plate.
• 1. Insert or use electrodes into each well to be assayed. • 2. Use the current-controlled amplifier to deliver stimulation wave pulses for 3 s. Two seconds of pre-stimulus recording are performed to obtain the un-stimulated intensities. Five seconds of post-stimulation recording are performed to examine the relaxation to the resting state.
Data are analyzed and reported as normalized ratios of background-subtracted emission intensities measured in the 460 nm and 580 nm channels. Background intensities are then subtracted from each assay channel. […]
Target sequence in this assay (Q9NY46 whole entry): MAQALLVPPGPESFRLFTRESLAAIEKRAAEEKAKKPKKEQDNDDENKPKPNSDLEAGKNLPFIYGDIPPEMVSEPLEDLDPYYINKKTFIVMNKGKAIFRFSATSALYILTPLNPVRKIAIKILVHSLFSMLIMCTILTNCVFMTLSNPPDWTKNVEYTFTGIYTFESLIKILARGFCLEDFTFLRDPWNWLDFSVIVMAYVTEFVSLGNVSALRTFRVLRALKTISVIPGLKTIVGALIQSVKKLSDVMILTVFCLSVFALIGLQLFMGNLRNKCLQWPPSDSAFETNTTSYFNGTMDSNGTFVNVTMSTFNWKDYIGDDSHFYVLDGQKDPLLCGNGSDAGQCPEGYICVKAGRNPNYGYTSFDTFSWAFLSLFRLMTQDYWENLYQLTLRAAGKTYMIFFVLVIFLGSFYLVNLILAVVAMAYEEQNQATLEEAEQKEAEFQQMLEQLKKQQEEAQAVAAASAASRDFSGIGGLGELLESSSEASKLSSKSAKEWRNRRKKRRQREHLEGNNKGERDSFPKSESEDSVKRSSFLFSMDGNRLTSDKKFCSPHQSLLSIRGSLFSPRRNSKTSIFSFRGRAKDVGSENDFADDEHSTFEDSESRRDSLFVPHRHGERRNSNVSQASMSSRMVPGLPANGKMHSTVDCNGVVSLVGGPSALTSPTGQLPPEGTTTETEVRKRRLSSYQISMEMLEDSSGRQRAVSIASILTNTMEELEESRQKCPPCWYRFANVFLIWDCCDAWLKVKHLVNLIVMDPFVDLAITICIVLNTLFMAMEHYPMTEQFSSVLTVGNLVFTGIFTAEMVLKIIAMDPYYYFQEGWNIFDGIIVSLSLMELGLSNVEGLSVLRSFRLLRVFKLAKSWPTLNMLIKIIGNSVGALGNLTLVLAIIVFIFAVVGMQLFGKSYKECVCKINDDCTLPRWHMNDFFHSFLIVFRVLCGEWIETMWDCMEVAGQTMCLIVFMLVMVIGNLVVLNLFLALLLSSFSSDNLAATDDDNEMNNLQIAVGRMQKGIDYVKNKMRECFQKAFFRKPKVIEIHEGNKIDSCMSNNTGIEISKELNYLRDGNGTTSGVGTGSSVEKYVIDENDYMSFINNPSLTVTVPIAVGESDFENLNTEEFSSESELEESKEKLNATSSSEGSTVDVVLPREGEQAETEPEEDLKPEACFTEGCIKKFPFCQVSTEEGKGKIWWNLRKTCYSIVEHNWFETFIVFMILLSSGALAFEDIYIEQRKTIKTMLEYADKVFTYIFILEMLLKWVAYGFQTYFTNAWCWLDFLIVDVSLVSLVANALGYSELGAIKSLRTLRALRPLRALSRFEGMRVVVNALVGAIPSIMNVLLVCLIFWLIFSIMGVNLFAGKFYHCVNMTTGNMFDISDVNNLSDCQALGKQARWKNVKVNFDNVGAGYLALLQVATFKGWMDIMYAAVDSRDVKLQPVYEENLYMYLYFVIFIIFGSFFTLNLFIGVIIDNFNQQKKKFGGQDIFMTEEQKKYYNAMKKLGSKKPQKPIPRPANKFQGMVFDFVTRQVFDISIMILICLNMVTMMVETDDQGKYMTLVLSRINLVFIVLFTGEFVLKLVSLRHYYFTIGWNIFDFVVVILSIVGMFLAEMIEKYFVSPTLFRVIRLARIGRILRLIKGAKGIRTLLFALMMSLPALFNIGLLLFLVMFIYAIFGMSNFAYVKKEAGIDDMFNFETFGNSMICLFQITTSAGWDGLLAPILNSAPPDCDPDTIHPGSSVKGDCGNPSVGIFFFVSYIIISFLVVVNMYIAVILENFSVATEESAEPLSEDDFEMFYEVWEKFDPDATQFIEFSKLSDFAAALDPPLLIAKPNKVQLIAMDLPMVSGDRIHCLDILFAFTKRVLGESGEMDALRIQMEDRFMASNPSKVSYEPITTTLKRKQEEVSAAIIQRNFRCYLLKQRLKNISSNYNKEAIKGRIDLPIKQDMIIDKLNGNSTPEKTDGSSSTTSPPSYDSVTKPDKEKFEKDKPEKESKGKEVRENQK

For experiment [2] the following is noted: in vivo; cited from earlier work.
The target of experiment [3] is T1, NaV1.3. Conditions: read-out: TTX IC50; cited from earlier work.
Target sequence in this assay (Q9NY46 whole entry, looked up): as the sequence (Q9NY46 whole entry) above
The mark [4] stands for this setting: NaV 1.3 channel, read-out: IC50.

Where two headings read alike, the source gives them in different places.

What is called IC50 is the point on the concentration scale where inhibition reaches its midpoint. For the molecule `O=C(COc1ccc(F)cc1)NC1Cc2ccc(S(=O)(=O)Nc3nccs3)cc2C1` (stereo not shown) [Compound 13], the IC50 on NaV1.3 [1] (setting [4]) fell in the range of 2000 to 5000 nM.
On the same count and under the same terms, the same measure for `O=C(NC1Cc2ccc(S(=O)(=O)Nc3nccs3)cc2C1)c1ccc(Cl)c(Cl)c1` (stereo not shown) [Compound 8]: 2000 to 5000 nM; for `O=C(COc1ccc(F)c(Cl)c1)NC1Cc2ccc(S(=O)(=O)Nc3nccs3)cc2C1` (stereo not shown) [Compound 5]: less than 2000 nM; for `O=C(CCOc1ccccc1)NC1Cc2ccc(S(=O)(=O)Nc3nccs3)cc2C1` (stereo not shown) [Compound 15]: more than 5000 nM.
On the same count and under the same terms, the same measure for `O=C(COc1cccc(Cl)c1)NC1Cc2ccc(S(=O)(=O)Nc3nccs3)cc2C1` (stereo not shown) [Compound 16, 2-(3-Chloro-phenoxy)-N-[5-(thiazol-2-ylsulfamoyl)-indan-2-yl]-acetamide]: less than 2000 nM; for `CC(C)(C)c1ccc(OCC(=O)NC2Cc3ccc(S(=O)(=O)Nc4nccs4)cc3C2)cc1` (stereo not shown) [Compound 12]: less than 2000 nM.
On the same count and under the same terms, in the case of `O=C(COc1ccc(Cl)cc1)NC1Cc2ccc(S(=O)(=O)Nc3nccs3)cc2C1` (stereo not shown) [Compound 2] it was less than 2000 nM.
As for `NCC1(CC(=O)O)CCCCC1` [Gabapentin], the “patients in whom the drug works” value in experiment [2] is reported as 60%.
In the case of `NC1=N[C@H](O)[C@H]2[C@H]3O[C@]4(O)O[C@@H]([C@@H](O)[C@@]2(N1)[C@@H]4O)[C@]3(O)CO` [TTX, tetrodotoxin], at NaV1.3 [3], the IC50 is 15 nM.
As for `O=C(NC1Cc2ccc(S(=O)(=O)Nc3nccs3)cc2C1)c1ccc(C(F)(F)F)cc1` (stereo not shown) [Compound 10], the IC50 on NaV1.3 [1] (setting [4]) is more than 5000 nM.
On to `O=C(NC1Cc2ccc(S(=O)(=O)Nc3nccs3)cc2C1)c1c(F)cc(F)cc1F` (stereo not shown) [Compound 7], for which the IC50 at NaV1.3 [1] (setting [4]) is more than 5000 nM.
On to `O=C(NC1Cc2ccc(S(=O)(=O)Nc3nccs3)cc2C1)c1ccccc1F` (stereo not shown) [Compound 14], for which, on NaV1.3 [1] (setting [4]), the IC50 was more than 5000 nM.
The same measure, in the same setting: in the case of `O=C(NC1Cc2ccc(S(=O)(=O)Nc3nccs3)cc2C1)c1cc(F)ccc1F` (stereo not shown) [Compound 3] it was more than 5000 nM; in that of `O=C(NC1Cc2ccc(S(=O)(=O)Nc3nccs3)cc2C1)c1ccc(F)cc1` (stereo not shown) [Compound 6, 4-Fluoro-N-[5-(thiazol-2-ylsulfamoyl)-indan-2-yl]-benzamide], more than 5000 nM.
As for `O=C(COc1ccccc1)NC1Cc2ccc(S(=O)(=O)Nc3nccs3)cc2C1` (stereo not shown) [Compound 9], the IC50 at NaV1.3 [1] (setting [4]) was more than 5000 nM.
On to `O=C(NC1Cc2ccc(S(=O)(=O)Nc3nccs3)cc2C1)Oc1cccc(C(F)(F)F)c1` (stereo not shown) [Compound 1], for which the IC50 on NaV1.3 [1] was less than 2000 nM.
On the same count and under the same terms, the same measure for `O=C(NC1Cc2ccc(S(=O)(=O)Nc3nccs3)cc2C1)Oc1ccc(Cl)cc1` (stereo not shown) [Compound 11]: less than 2000 nM.
Turning to `CC(C(=O)NC1Cc2ccc(S(=O)(=O)Nc3nccs3)cc2C1)n1ccc2ccccc21` (stereo not shown) [Compound 17, 2-Indol-1-yl-N-[5-(thiazol-2-ylsulfamoyl)-indan-2-yl]-propionamide], the IC50 on NaV1.3 [1] (setting [4]) was in the range of 2000 to 5000 nM.
Still for that read-out and setting: in the case of `O=C(CCn1ccc2cc(Cl)ccc21)NC1Cc2ccc(S(=O)(=O)Nc3nccs3)cc2C1` (stereo not shown) [Compound 4, 3-(5-Chloro-indol-1-yl)-N-[5-(thiazol-2-ylsulfamoyl)-indan-2-yl]-propionamide] it was less than 2000 nM.
